From US8883789B2, “Piperazine derivatives and their use as positive allosteric modulators of mGluR5 receptors” (Boehringer Ingelheim International GmbH, priority 2011, dated 2014) come the findings set out here.

Molecules are shown by their SMILES.

T1 sequence (P41594 21-1212): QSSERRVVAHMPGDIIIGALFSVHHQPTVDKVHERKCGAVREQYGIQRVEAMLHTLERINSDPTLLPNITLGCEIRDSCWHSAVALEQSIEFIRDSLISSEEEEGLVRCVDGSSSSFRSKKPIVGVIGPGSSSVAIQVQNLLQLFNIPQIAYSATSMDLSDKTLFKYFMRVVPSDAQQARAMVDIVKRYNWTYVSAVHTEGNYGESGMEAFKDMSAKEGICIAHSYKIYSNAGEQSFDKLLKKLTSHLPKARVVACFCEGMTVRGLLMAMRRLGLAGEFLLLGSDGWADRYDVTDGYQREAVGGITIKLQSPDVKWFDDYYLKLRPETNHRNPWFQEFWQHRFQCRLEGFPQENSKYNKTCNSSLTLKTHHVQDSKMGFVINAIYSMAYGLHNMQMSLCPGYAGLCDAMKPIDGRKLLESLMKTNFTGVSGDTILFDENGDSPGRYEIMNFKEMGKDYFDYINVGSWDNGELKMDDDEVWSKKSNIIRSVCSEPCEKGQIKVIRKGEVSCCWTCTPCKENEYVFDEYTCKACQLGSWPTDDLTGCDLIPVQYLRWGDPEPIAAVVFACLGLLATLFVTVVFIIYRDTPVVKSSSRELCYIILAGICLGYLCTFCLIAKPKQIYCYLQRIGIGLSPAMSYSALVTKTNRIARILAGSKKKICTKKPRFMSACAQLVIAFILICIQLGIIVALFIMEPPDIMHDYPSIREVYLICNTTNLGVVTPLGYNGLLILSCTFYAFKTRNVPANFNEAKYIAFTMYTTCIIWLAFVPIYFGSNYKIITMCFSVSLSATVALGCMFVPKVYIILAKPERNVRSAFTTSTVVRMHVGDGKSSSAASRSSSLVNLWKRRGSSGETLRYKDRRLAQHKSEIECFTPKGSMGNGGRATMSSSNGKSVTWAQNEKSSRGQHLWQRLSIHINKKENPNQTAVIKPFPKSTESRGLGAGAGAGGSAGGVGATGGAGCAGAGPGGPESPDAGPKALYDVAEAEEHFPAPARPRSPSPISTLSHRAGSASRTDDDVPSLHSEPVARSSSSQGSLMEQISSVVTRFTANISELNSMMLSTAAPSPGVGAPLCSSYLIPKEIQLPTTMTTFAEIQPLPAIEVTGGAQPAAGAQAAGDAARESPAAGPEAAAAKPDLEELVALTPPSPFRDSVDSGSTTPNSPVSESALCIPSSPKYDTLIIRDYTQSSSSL

This assay concerns the target T1, human recombinant mGluR5 (Homo sapiens, UniProt P41594).
T1 construct: expressed in transfected cells; hygromycin and geneticin selection
The experiment in a line: positive modulation of mGluR5, calcium based FLIPR assay. The note with it: HEK 293 cell line expressing human recombinant mGluR5; Ca2+ peak height after glutamate at approximately 5% basal stimulation; nonlinear regression. In a few lines: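 HEK293 cells with tetracycline-free induction, Calcium-4 dye-loaded in Ringer pH 7.4. Compound added 5 min before glutamate at ~5% of maximal effect, 1% DMSO. EC50 from peak Ca2+ fluorescence, normalized to basal glutamate (100%) and 10 μM CDPPB (200%), via nonlinear regression.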
For orientation: EC50 means the concentration needed to bring the measured effect to its halfway point. `CC1(C)CN(C(=O)c2cccc(C3CCOCC3)n2)CCN1C(=O)c1ncn(-c2cccc(Cl)c2)n1` [Example 176, [1-(3-Chloro-phenyl)-1H-[1,2,4]-triazol-3-yl]-{2,2-dimethyl-4-[6-(tetrahydro-pyran-4-yl)-pyridine-2-carbonyl]-piperazin-1-yl}-methanone]: the EC50 was 366 nM.
For the molecule `CC1(C)CN(C(=O)c2cccc(Cl)c2)CCN1C(=O)c1nnn(-c2ccccc2F)n1` [Example 196], the EC50 is 156 nM.
For `CC1CN(C(=O)c2ncn(-c3cccc(Cl)c3)n2)CCN1C(=O)c1cccc2c1OCO2` (stereo not shown) [Example 220], the 50% effective concentration (EC50) came out at 799 nM.
In the case of `CC1(C)CN(C(=O)c2cc3nccc(-c4ccccc4)n3n2)CCN1C(=O)c1ncn(-c2cccc(Cl)c2)n1` [Example 67], the EC50 was 29 nM.
The same measure for `Cc1c(C(=O)N2CCN(C(=O)c3ncn(-c4cccc(Cl)c4)n3)C(C)(C)C2)oc2c(F)cccc12` [Example 53]: 77 nM.
The same measure for `O=C(c1cc(Br)c(Br)o1)N1CCN(C(=O)c2ncn(-c3cccc(F)c3)n2)C2(CC2)C1` [Example 305]: 503 nM; for `Cc1cccc(C(=O)N2CCN(C(=O)c3ncn(-c4ccccc4)n3)C(C)(C)C2)c1` [Example 117]: 208 nM; for `Cc1oc2ccc(F)cc2c1C(=O)N1CCN(C(=O)c2ncn(-c3cccc(F)c3)n2)C(C)(C)C1` [Example 2]: 67 nM.
With `COc1cccc(C(=O)N2CCN(C(=O)c3nnn(-c4cccc(C)c4)n3)C(C)(C)C2)n1` [Example 198], the concentration giving a half-maximal response (EC50) amounted to 123 nM.
With `COc1cccc(C(=O)N2CCN(C(=O)c3ncn(-c4ccccc4)n3)C(C)(C)C2)n1` [Example 109] the figure was 128 nM; with `CC1(C)CN(C(=O)c2cc(Cl)cc(C(F)(F)F)c2)CCN1C(=O)c1ncn(-c2ccccc2)n1` [Example 145], 120 nM.
For `CC1(C)CN(C(=O)c2cccc(C3CCC3)c2)CCN1C(=O)c1ncn(-c2ccccc2)n1` [Example 151], the EC50 was 16 nM.
Consider `Cc1c(C(=O)N2CCN(C(=O)c3ncn(-c4cccc(Cl)c4)n3)C[C@@H]2C)oc2ccc(F)cc12` [Example 253], for which the 50% effective concentration (EC50) came out at 336 nM.
In the case of `O=C(c1cccc(Cl)c1)N1CCN(C(=O)c2ncn(-c3cccc(Cl)c3)n2)C2(CCCC2)C1` [Example 308], the EC50 stood at 367 nM.
As to `CC1(C)CN(C(=O)c2cccc(C3(F)COC3)c2)CCN1C(=O)c1ncn(-c2cccc(Cl)c2)n1` [Example 23], the EC50 was 58 nM.
Regarding `CC1(C)CN(C(=O)c2cnc3[nH]ccc3c2)CCN1C(=O)c1ncn(-c2cccc(Cl)c2)n1` [Example 59], the half-maximal effective concentration (EC50) was determined as 1080 nM.
For the molecule `CC1CN(C(=O)c2sc3ccccc3c2Cl)CCN1C(=O)c1ncn(-c2cccc(Cl)c2)n1` (stereo not shown) [Example 271], the 50% effective concentration (EC50) amounted to 621 nM.
For the molecule `CC1CN(C(=O)c2cn(C)c3ccccc23)CCN1C(=O)c1ncn(-c2cccc(Cl)c2)n1` (stereo not shown) [Example 276], the EC50 came out at 264 nM.
As for `CC1CN(C(=O)c2cc3c(Cl)cccc3s2)CCN1C(=O)c1ncn(-c2ccccc2)n1` (stereo not shown) [Example 293], the half-maximal effective concentration (EC50) stood at 361 nM.
In the case of `CC1(C)CN(C(=O)c2cc(Br)c(Br)o2)CCN1C(=O)c1ncn(-c2cccc(F)c2)n1` [Example 175], the 50% effective concentration (EC50) amounted to 104 nM.
On to `Cc1cccc(-n2cnc(C(=O)N3CCN(C(=O)c4cc(Cl)c5c(c4)OCCO5)CC3C)n2)c1` (stereo not shown) [Example 289], for which the EC50 amounted to 487 nM.
As for `COc1cccc(-c2cccc(C(=O)N3CCN(C(=O)c4ncn(-c5cccc(Cl)c5)n4)C(C)(C)C3)c2)c1` [Example 69], the concentration for a half-maximal effect (EC50) turned out to be 53 nM.
Regarding `CC1(C)CN(C(=O)c2cccc3c2OCO3)CCN1C(=O)c1ncn(-c2cccc(Cl)c2)n1` [Example 48], the EC50 was found to be 127 nM.
As for `CCc1ccc(C(=O)N2CCN(C(=O)c3ncn(-c4cccc(Cl)c4)n3)C(C)(C)C2)cc1` [Example 81], the EC50 was 155 nM.
In the case of `COc1ccc2c(C)c(C(=O)N3CCN(C(=O)c4ncn(-c5cccc(Cl)c5)n4)CC3C)oc2c1` (stereo not shown) [Example 213], the EC50 was 817 nM.
With `CC1(C)CN(C(=O)c2cccc(-c3ccncc3)n2)CCN1C(=O)c1ncn(-c2ccccc2)n1` [Example 111], the EC50 amounted to 215 nM.
Take `COC(C)c1cccc(C(=O)N2CCN(C(=O)c3ncn(-c4ccccc4)n3)C(C)(C)C2)c1` (stereo not shown) [Example 116]: the EC50 was determined as 388 nM.
`CC(C)c1ccc(C(=O)N2CCN(C(=O)c3ncn(-c4cccc(Cl)c4)n3)C(C)(C)C2)cc1` [Example 61]: the EC50 was 96 nM.
For the molecule `CC1(C)CN(C(=O)c2ccc(Cl)c(Cl)c2)CCN1C(=O)c1ncn(-c2cccc(Cl)c2)n1` [Example 27], the EC50 was 80 nM.
Turning to `COc1nc(C(=O)N2CCN(C(=O)c3nnn(-c4cccc(F)c4)n3)C(C)(C)C2)cc2ccccc12` [Example 207, [2-(3-Fluoro-phenyl)-2H-tetrazol-5-yl]-[4-(1-methoxy-isoquinoline-3-carbonyl)-2,2-dimethyl-piperazin-1-yl]-methanone], the EC50 is 34 nM.
With `CC1(C)CN(C(=O)c2cc(Cl)cc(Br)c2)CCN1C(=O)c1ncn(-c2ccccc2)n1` [Example 125], the half-maximal effective concentration (EC50) is 83 nM.
For `CC1CN(C(=O)c2cc(Br)c(Br)o2)CCN1C(=O)c1ncn(-c2cccc(Cl)c2)n1` (stereo not shown) [Example 266], the EC50 was found to be 538 nM.
With `COc1cccc(C(=O)N2CCN(C(=O)c3ncn(-c4cccc(Cl)c4)n3)C(C)(C)C2)n1` [Example 18], the EC50 is 48 nM.
For the molecule `Cc1nn(C)cc1-c1cccc(C(=O)N2CCN(C(=O)c3ncn(-c4cccc(Cl)c4)n3)C(C)(C)C2)n1` [Example 93], the concentration for a half-maximal effect (EC50) was 242 nM.
Regarding `CC1CN(C(=O)c2ncn(-c3cccc(Cl)c3)n2)CCN1C(=O)c1sc2ccccc2c1Cl` (stereo not shown) [Example 226], the EC50 stood at 600 nM.
As to `COc1ccc(C(=O)N2CCN(C(=O)c3ncn(-c4cccc(Cl)c4)n3)C(C)(C)C2)s1` [Example 76], the EC50 is 233 nM.
For `CC1CN(C(=O)c2cc(Cl)c3c(c2)OCCO3)CCN1C(=O)c1ncn(-c2cccc(Cl)c2)n1` (stereo not shown) [Example 283], the EC50 amounted to 233 nM.
On to `CC1(C)CN(C(=O)c2ccc3ccccc3c2)CCN1C(=O)c1ncn(-c2cccc(Cl)c2)n1` [Example 24], for which the half-maximal effective concentration (EC50) was determined as 61 nM.
In the case of `CC(=O)Nc1ccc2oc(C(=O)N3CCN(C(=O)c4ncn(-c5ccccc5)n4)C(C)(C)C3)c(C)c2c1` [Example 133], the EC50 was 1110 nM.
Take `CC1CN(C(=O)c2ncn(-c3cccc(Cl)c3)n2)CCN1C(=O)c1ccc(Cl)s1` (stereo not shown) [Example 231]: the EC50 was 1780 nM.
With `Cc1cccc(C(=O)N2CCN(C(=O)c3ncn(-c4cccc(Cl)c4)n3)C(C)(C)C2)n1` [Example 39], the EC50 came out at 419 nM.
Take `CC(=O)c1cccc(C(=O)N2CCN(C(=O)c3ncn(-c4ccccc4)n3)C(C)(C)C2)n1` [Example 124]: the EC50 is 145 nM.
With `Cc1c(C(=O)N2CCN(C(=O)c3ncn(-c4cccc(Cl)c4)n3)CC2C)oc2c(F)cccc12` (stereo not shown) [Example 232], the EC50 is 1160 nM.
Turning to `CC1(C)CN(C(=O)c2cccc(-c3cnco3)c2)CCN1C(=O)c1ncn(-c2ccccc2)n1` [Example 127], the concentration for a half-maximal effect (EC50) turned out to be 296 nM.
Consider `COc1nc(C(=O)N2CCN(C(=O)c3ncn(-c4ccc(C)c(F)c4)n3)C(C)(C)C2)cc2ccccc12` [Example 158], for which the concentration giving a half-maximal response (EC50) was 441 nM.
As for `Cc1ccc(C(=O)N2CCN(C(=O)c3ncn(-c4cccc(Cl)c4)n3)C(C)(C)C2)cc1Cl` [Example 71], the half-maximal effective concentration (EC50) was 47 nM.
In the case of `COc1cccc(C(=O)N2CCN(C(=O)c3ncn(-c4cccc(Cl)c4)n3)[C@H](C)C2)n1` [Example 301, (R)-{4-[1-(3-Chloro-phenyl)-1H-[1,2,4]triazole-3-carbonyl]-3-methyl-piperazin-1-yl}-(6-methoxy-pyridin-2-yl)-methanone], the half-maximal effective concentration (EC50) came to 162 nM.
The same measure for `CCOc1nc(C(=O)N2CCN(C(=O)c3ncn(-c4ccccc4)n3)C(C)(C)C2)cc2ccccc12` [Example 120]: 43 nM.
For the molecule `COc1cc(OC)cc(C(=O)N2CCN(C(=O)c3ncn(-c4cccc(Cl)c4)n3)CC2C)c1` (stereo not shown) [Example 224], the EC50 was 369 nM.
Regarding `CC1(C)CN(C(=O)c2cccc(OC(F)(F)F)c2)CCN1C(=O)c1ncn(-c2cccc(Cl)c2)n1` [Example 37], the EC50 turned out to be 388 nM.
For the molecule `Cc1c(C(=O)N2CCN(C(=O)c3ncn(-c4cccc(Cl)c4)n3)C[C@H]2C)oc2ccc(F)cc12` [Example 250], the EC50 came to 371 nM.
Regarding `COCC1(C)CN(C(=O)c2cccc(OC)n2)CCN1C(=O)c1ncn(-c2cccc(C)c2)n1` (stereo not shown) [Example 310], the EC50 stood at 802 nM.
On to `CC1CN(C(=O)c2ccc(Cl)s2)CCN1C(=O)c1ncn(-c2cccc(Cl)c2)n1` (stereo not shown) [Example 273], for which the concentration giving a half-maximal response (EC50) turned out to be 1320 nM.
The same measure for `C#CCOc1cccc(C(=O)N2CCN(C(=O)c3ncn(-c4cccc(Cl)c4)n3)C(C)(C)C2)c1` [Example 72]: 64 nM; for `CC1(C)CN(C(=O)c2cccc(Cl)c2)CCN1C(=O)c1ncn(-c2ccccc2)n1` [Example 186, [4-(3-Chloro-benzoyl)-2,2-dimethyl-piperazin-1-yl]-(1-phenyl-1H-[1,2,4]-triazol-3-yl)-methanone]: 39 nM.
Regarding `CC1(C)CN(C(=O)c2ccc(F)c(Cl)c2)CCN1C(=O)c1ncn(-c2ccccc2)n1` [Example 149], the EC50 was 353 nM.
As to `CC1(C)CN(C(=O)c2cccc(-c3nccs3)c2)CCN1C(=O)c1ncn(-c2cccc(Cl)c2)n1` [Example 26], the EC50 was determined as 72 nM.
With `CC1CN(C(=O)c2ncn(-c3cccc(Cl)c3)n2)CCN1C(=O)c1ccc2ccn(C)c2c1` (stereo not shown) [Example 222] the figure was 294 nM; with `CC(C)COc1cccc(C(=O)N2CCN(C(=O)c3ncn(-c4ccccc4)n3)C(C)(C)C2)c1` [Example 129], 88 nM.
`CC1(C)CN(C(=O)c2cccc(Cl)c2)CCN1C(=O)c1nnn(-c2ccccc2)n1` [Example 187]: the concentration giving a half-maximal response (EC50) amounted to 24 nM.
Take `CC1(C)CN(C(=O)c2cc3ccccc3c(C3CC3)n2)CCN1C(=O)c1ncn(-c2cccc(Cl)c2)n1` [Example 204]: the EC50 was determined as 129 nM.
